Results as given in patent publication US20020026053A1, “Novel 3-(substituted) -2- indolinones compounds and use thereof as inhibitors of protein kinase activity” (priority 1997, published 2002).

Tested on: FLK-1 receptor
Test: FLK-1 Assay (cellular/catalytic ELISA, VEGF-stimulated phosphotyrosine)
Type: cell-based
Set-up: concentration or dose not given beside the values
How it was run: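 Receptor phosphotyrosine ELISA: Flk-1-expressing NIH3T3 C7#3 cells, starved overnight in 0.1% FBS medium, received compound (1:200 final dilution, 0.5% DMSO) for 2 h at 37 °C, then VEGF. Anti-FLK-1-captured receptor was probed with anti-phosphotyrosine UB40 and peroxidase/ABTS read-out, relative to cells without compound.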

Row | Structure (SMILES) | Flk Kinase % Inhibition (P.110)
1 | CCN(CC)c1ccc(C=C2C(=O)Nc3ccc(CCCl)cc32)c(O)c1 [10734/G05] | 7.4%
2 | O=C1Nc2ccc(CCCl)cc2C1=Cc1ccc([N+](=O)[O-])cc1 [10734/G06] | 16.5%
3 | O=C1Nc2ccc(CCCl)cc2C1=Cc1cc(Br)cc(Br)c1O [10734/G07] | 21.9%
4 | O=C1Nc2ccc(CCCl)cc2C1=Cc1cccc(F)c1O [10734/G08] | 11.6%
5 | O=C1Nc2ccc(CCCl)cc2C1=Cc1ccc(O)c(Br)c1 [10734/G09] | 8.5%
6 | CC(C)(C)c1ccc(C=C2C(=O)Nc3ccc(CCCl)cc32)cc1 [10734/G10] | 10.8%
7 | O=C1Nc2ccc(CCCl)cc2C1=Cc1ccc(Br)s1 [10734/G11] | 8.7%
8 | CCOc1cccc(C=C2C(=O)Nc3c(Br)cc(Br)c(C)c32)c1O [10734/H02] | 0.5%
9 | Cc1c(Br)cc(Br)c2c1C(=Cc1cc(Cl)cc(Cl)c1O)C(=O)N2 [10734/H03] | 4.6%
10 | Cc1c(Br)cc(Br)c2c1C(=Cc1cc(Cl)ccc1O)C(=O)N2 [10734/H04] | −1.3%
